Results: US5134142A, “Pyrazole derivatives, and pharmaceutical composition comprising the same” (Fujisawa Pharmaceutical Co., Ltd., priority 1989, dated 1992)

Key:
[1] = test system: inflammatory hyperalgesia induced by brewer's yeast in rats; test: Inflammatory hyperalgesia induced by brewer's yeast in rats (analgesic activity); type: in vivo, male Sprague Dawley rats; details: oral, pain threshold 3 hours after yeast injection
Description: Inflammatory hyperalgesia induced by brewer's yeast in rats : (i) Test Method : Ten male Sprague Dawley rats were used per group. 0.1 ml of 5% brewer's yeast suspended in 0.5% methylcellulose was injected into the right hind paw. The pain threshold was determined 3 hours after yeast injection, by applying pressure to the foot and reading the pressure at which the rat withdrew the foot. The drugs were given orally 2 hours after yeast injection. The pain threshold in the treated animals was compared with that in the control animals.

[2] = test system: adjuvant arthritis in rats; test: Effect on adjuvant arthritis in rats (antiinflammatory activity); type: in vivo, female Sprague-Dawley rats; details: Rattus norvegicus, po, 552 h, orally once a day for 23 days, read-out: Inhibition of secondary lesion (uninjected paw)
[3] = test system: collagen induced arthritis in mice; test: Effect on collagen induced arthritis in mice (anti-rheumatic activity); type: in vivo, male DBA/1 mice; details: 10 mg/kg, orally once a day for 3 weeks from 10 day after challenge
Description: Effect on collagen induced arthritis in mice : (i) Test Method : Eight male DBA/1 mice were used per group. Type II bovine collagen was solublized in 0.1M acetic acid and emulsified in complete Freund's adjuvant (CFA . Mice were primed with 0.2 mg of Type II collagen in CFA intradermally at the base of the tail. Mice were challenged after 21 day with the same procedure. From 10 day after challenge, drug was administered orally once a day for 3 weeks and mice were inspected weekly for visual signs of arthritis. An arthritis index was used to grade limb 0-3, representing joint swelling and erythema (Grade 1), visible joint disorder (Grade 2 and detectable joint ankylosis (Grade 3).

[4] = test system: Delayed Type Hypersensitivity (DTH) response to bovine type II collagen; test: Effect on Delayed Type Hypersensitivity (DTH) response to bovine type II collagen; type: in vivo, male DBA/1 mice; details: oral, 24 hours after challenge, mice
[5] = test system: platelet aggregation induced by collagen; test: Effect on platelet aggregation induced by collagen (antithrombotic activity); type: cell-based; details: human platelet rich plasma, collagen 0.5 μg/ml, 37° C
Description: Effect on platelet aggregation induced by collagen :
Platelet rich plasma (PRP) which contains 3×10^8 platelets/ml was prepared from human blood. To the 245 μl of PRP, 5 μl of drug solution* was added, and then stirred for 2 min at 37° C. To the solution 5 μl of collagen (0.5 μg/ml) was added as an aggregation inducer. Aggregation was measured by using an aggregometer (NKK HEMA-TRACER 1). Activities of inhibitors (test compounds) were expressed as IC50 values i.e. doses required to inhibit the platelet aggregation responses by 50%.
Drug solution* - - - Test compounds were dissolved in dimethylsulfoxide.

## CS(=O)(=O)c1ccc(-c2cc(C(F)(F)F)nn2-c2ccc(F)cc2)cc1 [11-3), 1-(4-Fluorophenyl)-5-[4-(methylsulfonyl)phenyl]-3-(trifluoromethyl)pyrazole]
[1]; 32 mg/kg
  Relative potency (Control = 1.0): 1.35
[2]
  inhibition in vivo at 10 mg/kg: 100%
[3]
  Inhibition of arthritis index: 91.7%

## CSc1ccc(-c2cc(C#N)nn2-c2ccc(F)cc2)cc1 [15-2), 1-(4-Fluorophenyl)-5-[4-(methylthio)phenyl]pyrazole-3-carbonitrile]
[4]; 0.32 mg/kg
  per cent inhibition of DTH response compared with vehicle control: 55.4%
[4]; 1.0 mg/kg
  per cent inhibition of DTH response compared with vehicle control: 70.9%
[4]; 3.2 mg/kg
  per cent inhibition of DTH response compared with vehicle control: 69.6%

## CS(=O)(=O)c1ccc(-c2cc(C#N)nn2-c2ccc(F)cc2F)cc1 [15-6), 1-(2,4-Difluorophenyl)-5-[4-(methylsulfonyl)phenyl]pyrazole-3-carbonitrile]
[2]
  inhibition in vivo at 3.2 mg/kg: 94.3%
[3]
  Inhibition of arthritis index: 98.9%

## CS(=O)(=O)c1ccc(-c2ccnn2-c2ccc(F)cc2)cc1 [17-1), 1-(4-Fluorophenyl)-5-[4-(methylsulfonyl)phenyl]pyrazole]
[2]
  inhibition in vivo at 3.2 mg/kg: 80.6%

## C[S+]([O-])c1ccc(-c2cc(C#N)nn2-c2ccc(F)cc2F)cc1 (centres unmarked) [33-2), 1-(2,4-Difluorophenyl)-5-[4-(methylsulfinyl)phenyl]pyrazole-3-carbonitrile]
[2]
  inhibition in vivo at 3.2 mg/kg: 87.1%
[3]
  Inhibition of arthritis index: 92.4%

## CCNc1ccc(-n2nc(C#N)cc2-c2ccc(S(C)(=O)=O)cc2)cc1 [37-2), 1-[4-(Ethylamino)phenyl]-5-[4-(methylsulfonyl)phenyl]pyrazole-3-carbonitrile]
[2]
  inhibition in vivo at 3.2 mg/kg: 81.7%

## CNc1ccc(-n2nc(C(F)(F)F)cc2-c2ccc(S(C)(=O)=O)cc2)cc1.Cl [45-8), 1-[4-(Methylamino)phenyl]-5-[4-(methylsulfonyl)-phenyl]-3-(trifluoromethyl)pyrazole hydrochloride]
[2]
  inhibition in vivo at 3.2 mg/kg: 80.8%
[3]
  Inhibition of arthritis index: 83.5%

## CS(=O)(=O)c1ccc(-c2cc(C#N)nn2-c2ccc(F)cc2)cc1 [Example 6, 1-(4-fluorophenyl)-5-[4-(methylsulfonyl)phenyl]pyrazole-3-carbonitrile]
[1]; 32 mg/kg
  Relative potency (Control = 1.0): 1.34
[2]
  inhibition in vivo at 10 mg/kg: 95.6%
[5]
  IC50: 5.3 µM
[4]; 0.32 mg/kg
  per cent inhibition of DTH response compared with vehicle control: 53.4%
[4]; 1.0 mg/kg
  per cent inhibition of DTH response compared with vehicle control: 61.5%
[4]; 3.2 mg/kg
  per cent inhibition of DTH response compared with vehicle control: 74.3%
[3]
  Inhibition of arthritis index: 78.6%

## C[S+]([O-])c1ccc(-c2cc(C#N)nn2-c2ccc(F)cc2)cc1 (centres unmarked) [Example 24, 1-(4-fluorophenyl)-5-[4-(methylsulfinyl)phenyl]pyrazole-3-carbonitrile]
[1]; 10 mg/kg
  Relative potency (Control = 1.0): 1.44
[2]
  inhibition in vivo at 3.2 mg/kg: 80.6%
[4]; 0.32 mg/kg
  per cent inhibition of DTH response compared with vehicle control: 45.9%
[4]; 1.0 mg/kg
  per cent inhibition of DTH response compared with vehicle control: 66.9%
[4]; 3.2 mg/kg
  per cent inhibition of DTH response compared with vehicle control: 75.7%
[3]
  Inhibition of arthritis index: 90.5%

## CS(=O)(=O)Nc1ccc(-n2nc(C#N)cc2-c2ccc(S(C)(=O)=O)cc2)cc1 [Example 36]
[2]
  inhibition in vivo at 3.2 mg/kg: 84.2%

## CC(C)Cc1ccc(C(C)C(=O)O)cc1 (centres unmarked) [Ibuprofen, reference compound]
[2]
  inhibition in vivo at 10 mg/kg: 24.7%
